{"source": "ChEMBL document CHEMBL1148662", "about": "“Activation of mitogen activated protein kinase (MAPK) during D-galactosamine intoxication in the rat liver” (2006)", "key": {"Rattus norvegicus [1]": {"system": "Rattus norvegicus", "test": "Increase in hepatic vitamin C level in Wistar rat at 1 g/kg, ip after 1.5 hrs relative to control", "format": "functional"}, "Rattus norvegicus [2]": {"system": "Rattus norvegicus", "test": "Increase in hepatic vitamin C level in Wistar rat at 1 g/kg, ip after 3 hrs relative to control", "format": "functional"}, "Rattus norvegicus [3]": {"system": "Rattus norvegicus", "test": "Increase in hepatic vitamin C level in Wistar rat at 1 g/kg, ip after 6 hrs relative to control", "format": "functional"}, "Rattus norvegicus [4]": {"system": "Rattus norvegicus", "test": "Increase in plasma glutamate oxaloacetate transaminase level in Wistar rat at 1 g/kg, ip after 1.5 hrs relative to control", "format": "functional"}, "Rattus norvegicus [5]": {"system": "Rattus norvegicus", "test": "Increase in plasma glutamate oxaloacetate transaminase level in Wistar rat at 1 g/kg, ip after 3 hrs relative to control", "format": "functional"}, "Rattus norvegicus [6]": {"system": "Rattus norvegicus", "test": "Increase in plasma glutamate oxaloacetate transaminase level in Wistar rat at 1 g/kg, ip after 6 hrs relative to control", "format": "functional"}, "Rattus norvegicus [7]": {"system": "Rattus norvegicus", "test": "Increase in plasma glutamate oxaloacetate transaminase level in Wistar rat at 1 g/kg, ip after 12 hrs relative to control", "format": "functional"}, "Rattus norvegicus [8]": {"system": "Rattus norvegicus", "test": "Increase in plasma glutamate oxaloacetate transaminase level in Wistar rat at 1 g/kg, ip after 24 hrs relative to control", "format": "functional"}, "Rattus norvegicus [9]": {"system": "Rattus norvegicus", "test": "Increase in plasma glutamate pyruvate transaminase level in Wistar rat at 1 g/kg, ip after 1.5 hrs relative to control", "format": "functional"}, "Rattus norvegicus [10]": {"system": "Rattus norvegicus", "test": "Increase in plasma glutamate pyruvate transaminase level in Wistar rat at 1 g/kg, ip after 3 hrs relative to control", "format": "functional"}, "Rattus norvegicus [11]": {"system": "Rattus norvegicus", "test": "Increase in plasma glutamate pyruvate transaminase level in Wistar rat at 1 g/kg, ip after 6 hrs relative to control", "format": "functional"}, "Rattus norvegicus [12]": {"system": "Rattus norvegicus", "test": "Increase in plasma glutamate pyruvate transaminase level in Wistar rat at 1 g/kg, ip after 12 hrs relative to control", "format": "functional"}, "Rattus norvegicus [13]": {"system": "Rattus norvegicus", "test": "Increase in plasma glutamate pyruvate transaminase level in Wistar rat at 1 g/kg, ip after 24 hrs relative to control", "format": "functional"}, "Rattus norvegicus [14]": {"system": "Rattus norvegicus", "test": "Increase in hepatic vitamin C level in Wistar rat at 1 g/kg, ip after 12 hrs relative to control", "format": "functional"}, "Rattus norvegicus [15]": {"system": "Rattus norvegicus", "test": "Increase in hepatic vitamin C level in Wistar rat at 1 g/kg, ip after 24 hrs relative to control", "format": "functional"}, "Rattus norvegicus [16]": {"system": "Rattus norvegicus", "test": "Increase in phosphorylated JNK level in Wistar rat at 1 g/kg, ip after 3 hrs relative to control", "format": "functional, organism-based"}, "Rattus norvegicus [17]": {"system": "Rattus norvegicus", "test": "Increase in phosphorylated ERK level in Wistar rat at 1 g/kg, ip after 3 hrs relative to control", "format": "functional, organism-based"}, "Rattus norvegicus [18]": {"system": "Rattus norvegicus", "test": "Increase in phosphorylated p38 MAPK level in Wistar rat at 1 g/kg, ip after 6 hrs relative to control", "format": "functional, organism-based"}}, "note": "The source made the active and inactive calls. The rule behind the calls is not given here."}
{"smiles": "N[C@H]1C(O)O[C@H](CO)C(O)[C@@H]1O", "note": "(single isomer, unassigned) [GLUCOSAMINE]", "values": [{"measurement": "Activity", "setting": "Rattus norvegicus [1]", "result": 1571, "unit": "nmol/g"}, {"measurement": "Activity", "setting": "Rattus norvegicus [2]", "result": 1137, "unit": "nmol/g"}, {"measurement": "Activity", "setting": "Rattus norvegicus [3]", "result": 1118, "unit": "nmol/g"}, {"measurement": "Activity", "setting": "Rattus norvegicus [4]", "result": 52.3, "unit": "nmol/g"}, {"measurement": "Activity", "setting": "Rattus norvegicus [5]", "result": 124, "unit": "nmol/g"}, {"measurement": "Activity", "setting": "Rattus norvegicus [6]", "result": 517, "unit": "nmol/g"}, {"measurement": "Activity", "setting": "Rattus norvegicus [7]", "result": 793, "unit": "nmol/g"}, {"measurement": "Activity", "setting": "Rattus norvegicus [8]", "result": 2560, "unit": "nmol/g"}, {"measurement": "Activity", "setting": "Rattus norvegicus [9]", "result": 25.8, "unit": "nmol/g"}, {"measurement": "Activity", "setting": "Rattus norvegicus [10]", "result": 49.7, "unit": "nmol/g"}, {"measurement": "Activity", "setting": "Rattus norvegicus [11]", "result": 295, "unit": "nmol/g"}, {"measurement": "Activity", "setting": "Rattus norvegicus [12]", "result": 426, "unit": "nmol/g"}, {"measurement": "Activity", "setting": "Rattus norvegicus [13]", "result": 1519, "unit": "nmol/g"}, {"measurement": "Activity", "setting": "Rattus norvegicus [14]", "result": 1104, "unit": "nmol/g"}, {"measurement": "Activity", "setting": "Rattus norvegicus [15]", "result": 978, "unit": "nmol/g"}, {"measurement": "Activity", "setting": "Rattus norvegicus [16]", "result": "Active"}, {"measurement": "Activity", "setting": "Rattus norvegicus [17]", "result": "Active"}, {"measurement": "Activity", "setting": "Rattus norvegicus [18]", "result": "Active"}]}
